Test results published in patent US6410558B1, “Fungicides for the control of take-all disease of plants” (Monsanto Technology LLC, priority 1991, dated 2002).

Tests used:
Ggt = assay: In vivo Assay: control of Ggt on wheat grown in pots of Ggt-infested soil, root disease rating; design: species or system Gaeumannomyces graminis var. tritici; conditions: Gaeumannomyces graminis, 672 h; 0.5 mg active ingredient per pot; 'Bergen' or 'Anza' wheat in Ggt-infested soil; after four weeks; vs untreated control; read-out: In vivo, percent disease control
Protocol: Compounds are tested for control of Ggt on ‘Bergen’ or ‘Anza’ varieties of wheat grown in 3-inch square pots containing soil infested with Ggt. The infestation is accomplished by mixing the soil with an inoculum prepared by growing Ggt on ¼ strength potato dextrose agar (4.875 g potato dextrose agar, 5.0 g Bacto agar, 500 mL distilled, deionized water) in plates and using plugs from the plates to infest sterile oats (400 cc whole oats, 350 mL deionized water, autoclaved). After a one-month incubation period at room temperature, the oats are dried and mixed with the soil at 4% v/v. Four wheat seeds are placed on top of the soil in each pot. The test compounds are prepared as an 1:9 acetone/water v/v solution containing 0.18% Tween® 20 to provide a treatment rate of 0.5 mg active ingredient per pot, treated with 3 mL test solution per pot. Five pots are used for each treatment level and the controls, which are untreated, inoculated and non-inoculated pots. After one hour drying time, the seeds are covered with more of the appropriate soil and a layer of vermiculite. The pots are placed in a growth chamber and watered each day. After four weeks, each pot is evaluated for evidence of disease by examination of the seminal roots of each plant under a dissecting microscope. A 0 to 5 rating scale having the following meanings is used:
0=no runner hyphae or lesions present
1=runner hyphae and a few small lesions present on <10% of root system
2=runner hyphae and small lesions present on 10-25% of root system
3=runner hyphae and lesions present on 25-50% of root system
4=runner hyphae and many, large, coalescing lesions on >50% of root system
5=root system and culm completely inundated with lesions and runner hyphae
From each set of five replicates a high and low score is eliminated and a replicate mean is calculated by the average of the remaining three scores. This mean score is then compared to the untreated control score and a percent disease control is calculated.

[1] = system: Gaeumannomyces graminis var. tritici (Ggt); assay: In vitro Assay: mycelial growth of Ggt on minimal media agar plates containing test compound; type: cell-based; conditions: Gaeumannomyces graminis, dark, 19-20° C., 4 to 5 days, diameter of mycelial growth; for inhibition at 0.1 ppm: 0.1 ppm in minimal media agar, read-out: In vitro (ppm) 0.1, Percent Inhibition; for inhibition at 1 ppm: 1 ppm in minimal media agar, read-out: In vitro (ppm) 1, Percent Inhibition; for inhibition at 10 ppm: 10 ppm in minimal media agar, read-out: In vitro (ppm) 10, Percent Inhibition
How it was run: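 Ggt mycelial diameter read after 4 to 5 days in darkness at 19-20° C, from three 4-mm plugs placed on Czapek Dox minimal agar containing test compound delivered in acetone. Inhibition expressed as percent versus untreated plates, plug size (4 mm) subtracted from both.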

SMILES | pest or weed control at 0.5 mg/pot (Ggt) [%] | inhibition at 0.1 ppm [1] [%] | inhibition at 1 ppm [1] [%] | inhibition at 10 ppm [1] [%]
C=CCNC(=O)c1c(Cl)cccc1[Si](C)(C)C [Example 106, 2-Chloro-N-2-propenyl-6-(trimethylsilyl)benzamide] | 100 | 95 | 95 | 97
CCN(CC)C(=O)c1c(Cl)cccc1[Si](C)(C)c1ccccc1 [Example 67, N,N-Diethyl-2-chloro-6-(dimethylphenylsilyl)benzamide] | < 0 | < 0 | 19 | 100
CCNC(=O)c1c(Cl)cccc1[Si](C)(C)CC [Example 212, 2-Chloro-N-ethyl-6-(ethyldimethylsilyl)benzamide] | 96 | 77 | 54 | 90
CCCN(CCC)C(=O)c1ccccc1[Si](C)(C)C [Example 13, N,N-Dipropyl-2-(trimethylsilyl)benzamide] | 13 | 7 | 17 | 64
C=CCNC(=O)NC(=O)c1c(Cl)cccc1[Si](C)(C)C [Example 165, 2-Chloro-N-[(2-propenylamino)carbonyl]-6-(trimethylsilyl)benzamide] | 63 | < 0 | 76 | 100
CCNC(=O)c1c([Si](C)(C)C)ccc(C=O)c1Cl [Example 223, 2-Chloro-N-ethyl-3-formyl-6-(trimethylsilyl)benzamide] | 82 | 48 | 93 | 96
CCNC(=O)c1sc(Br)cc1[Si](C)(C)C [Example 266, 5-Bromo-N-ethyl-3-(trimethylsilyl)-2-thiophenecarboxamide] | 4 | 21 | 61 | 100
C[Si](C)(C)c1cccc(Cl)c1C(=O)NCC(F)(F)F [Example 25, 2-Chloro-N-(2,2,2-trifluoro-ethyl)-6-(trimethylsilyl)-benzamide] | 56 | 19 | 15 | 89
CCNC(=O)c1cc(Cl)ccc1[Si](C)(C)C [Example 213, 5-Chloro-N-ethyl-2-(trimethylsilyl)benzamide] | 87 | 9 | 82 | 79
CCN(CC)C(=S)c1c(C)cccc1[Si](C)(C)C [Example 51, N,N-Diethyl-2-methyl-6-(trimethylsilyl)thiobenzamide] | 77 | < 0 | 19 | 100
CCN(CC)C(=O)c1c(CF)ccc(F)c1[Si](C)(C)C [Example 55, N,N-Diethyl-3-fluoro-6-(fluoromethyl)-2-(trimethylsilyl)benzamide] | 100 | 49 | 81 | 100
CCN(CC)C(=O)c1c(CF)cccc1[Si](C)(C)C [Example 98, N,N-Diethyl-2-(fluoromethyl)-6-(trimethylsilyl)benzamide] | 97 | 22 | 81 | 100
C[Si](C)(C)c1cccc(Cl)c1C(=O)Nc1ccccc1[N+](=O)[O-] [Example 160, 2-Chloro-N-(2-nitrophenyl)-6-(trimethylsilyl)benzamide] | 5 | 17 | 63 | 88
CCNC(=O)c1c(C)cccc1N(C)C(C)(C)C [Example 191, N-Ethyl-2-[(1,1-dimethylethyl)methylamino]-6-methylbenzamide] | 88 | 60 | 88 | 88
CCNC(=O)c1c([Si](C)(C)C)ccc([N+](=O)[O-])c1Cl [Example 216, 2-Chloro-N-ethyl-3-nitro-6-(trimethylsilyl)benzamide] | 68 | 25 | 54 | 92
CCN(CC)C(=S)c1c(C)ccc(F)c1[Si](C)(C)C [Example 53, N,N-Diethyl-3-fluoro-6-methyl-2-(trimethylsilyl)thiobenzamide] | 65 | 9 | 19 | 95
CCC(C)NC(=O)c1c(Cl)cccc1[Si](C)(C)C (stereo not shown) [Example 28, 2-Chloro-N-(1-methylpropyl)-6-(trimethylsilyl)benzamide] | 86 | 60 | 100 | 100
CCN(CC)C(=O)c1c(Cl)ccc(F)c1[Si](C)(C)C [Example 38, 6-Chloro-N,N-diethyl-3-fluoro-2-(trimethylsilyl)benzamide] | 95 | 53 | 79 | 100
CCN(C(=O)c1c(Cl)cccc1[Si](C)(C)C)C(C)C [Example 18, 2-Chloro-N-ethyl-N-(1-methylethyl)-6-(trimethylsilyl)benzamide] | 97 | < 0 | < 0 | 100
CCNC(=O)c1c(C)cccc1[Si](C)(C)C [Example 48, N-Ethyl-2-methyl-6-(trimethylsilyl)benzamide] | 97 | 74 | 100 | 100
CCNC(=O)c1c(Cl)ccc(Br)c1[Si](C)(C)C [Example 232, 3-Bromo-6-chloro-N-ethyl-2-(trimethylsilyl)benzamide] | 78 | 92 | 97 | 95
CCN(CC)C(=O)c1c(Cl)cccc1C[Si](C)(C)C [Example 166, 2-Chloro-N,N-diethyl-6-[(trimethylsilyl)methyl]benzamide] | 15 | 4 | < 0 | 73
CCN(CC)C(=O)c1c(CO)ccc(F)c1[Si](C)(C)C [Example 54, N,N-Diethyl-3-fluoro-6-(hydroxymethyl)-2-(trimethylsilyl)benzamide] | 52 | < 0 | 2 | 43
CCCCCCCCNC(=O)c1c(Cl)cccc1[Si](C)(C)C [Example 17, 2-Chloro-N-octyl-6-(trimethylsilyl)-benzamide] | < 0 | 59 | 64 | 64
CN(C(=O)c1cccc(F)c1[Si](C)(C)C)C(C)(C)C [Example 5, N-(1,1-Dimethylethyl)-3-fluoro-N-methyl-2-(trimethylsilyl)benzamide] | 24 | < 0 | < 0 | 29
CCNC(=O)c1c([Si](C)(C)C)sc2c1CCCC2 [Example 270, N-Ethyl-2-(trimethylsilyl)-4,5,6,7-tetrahydrobenzo[B]thiophene-3-carboxamide] | 87 | 96 | 100 | 100
C[Si](C)(C)c1cccc(Cl)c1C(=O)NCC1CC1 [Example 150, 2-Chloro-N-(cyclopropylmethyl)-6-(trimethylsilyl)benzamide] | 96 | 34 | 74 | 83
C=C[Si](C)(C)c1cccc(Cl)c1C(=O)NCC [Example 87, N-Ethyl-2-chloro-6-(ethenyldimethylsilyl)benzamide] | 96 | 93 | 100 | 100
